Measured values: patent US20100204216A1, “PHARMACEUTICAL COMPOSITION FOR […]-beta PROTEIN ACCUMULATION” (SUMMITOMO CHEMICAL COMPANY LIMITED, priority 2007, published 2010)

System: CHP212 cells
Assay: Measurement of fluctuation in the amount of Aβ accumulation in cultured nerve cells
Assay type: cell-based
Details: cultured nerve cells (human neuroblastoma CHP212); Aβ in the medium by ELISA (Human/Rat Amyloid β1-42 kit) 48 hours after addition of test substance; 10^-12 M to 10^-6 M; versus DMSO control (100%), FIG. 1
Description: FIG. 1 is a diagram showing results of measuring fluctuation caused by a test substance of the formula (a) in the amount of Aβ accumulation in cultured nerve cells (CHP212 cells).
In the diagram, each column represents, starting from the left, a result of measurement obtained in a well to which the test substance has been added so that its final concentration can be 10^−12M (10^−12 M), in a well to which the test substance has been added so that its final concentration can be 10^−11M (10^−11M), in a well to which the test substance has been added so that its final concentration can be 10^−10M (10^−10M), in a well to which the test substance A has been added so that its final concentration can be 10^−9M (10^−9M), in a well to which the test substance has been added so that its final concentration can be 10^−8M (10^−8M), in a well to which the test substance has been added so that its final concentration can be 10^−7M (10^−7M), and in a well to which the test substance has been added so that its final concentration can be 10^−6M (10^−6 M). The results are shown in % by setting a result obtained in a control well to which only a solvent (DMSO) has been added as 100%. […]

O=c1cc(C(F)(F)F)c2cc(N(CC(F)(F)F)CC(F)(F)F)ccc2[nH]1 [formula (a)]
amount of Aβ accumulation: markedly decreased
